# Key:
# NFκB = NFκB promoter activity in transfected THP-1 cells (beta-lactamase reporter); assay type: cell-based, human; settings: TNFα 7.5 ng/ml, 5 h
# Procedure: The assay utilizes a genetically modified THP-1 cell line and GeneBLAzer® beta-lactamase technology (Invitrogen Corp). The human THP-1 monocyte/macrophages contain a stably-transfected beta-lactamase reporter gene under control of the NFkB response element. They respond to stimulation with TNFα, which leads to activation of the NFkB signaling pathway. Co-incubation of cells with TNFα and test material allows quantitative determination of the ability of test material to inhibit TNFα-stimulated beta-lactamase production. An inflammatory index was calculated as the ratio of beta-lactamase product to beta-lactamase substrate.
# In brief, genetically modified THP-1 cells were seeded into wells of a 96-well plate (50×10^3 cells/well) in the presence of RPMI 1640 medium (70 μl). TNFα was added to each well (10 μl) to give a final concentration of 7.5 ng/ml. Dialyzed bovine serum was added (10 μl). Test compounds were dissolved in DMSO (10 μL) (5 wells). Each plate contained a no-cell control (4 wells), a no-serum control (4 wells) and two serum controls. Plates were incubated for 5 h at 37° C. to allow for NFkB-stimulated beta-lactamase production. LiveBLAzer™ FRET B/G Substrate (CCF4-AM) substrate was then added to the assay. CCF4-AM is a Förster resonance energy transfer (FRET) based substrate for beta-lactamase developed by Invitrogen Corp. Once CCFA-AM enters a cell, it is converted to negatively charged CCF4 by endogenous esterases. Excitation of this substrate at 409 nm leads to efficient FRET between the coumarin and fluorescein moieties, resulting in a green fluorescence detectable at 530 nm. The presence of beta-lactamase leads to cleavage of CCF4 and results in a loss of FRET, resulting in a robust blue fluorescent signal detectable at 460 nm. Thus, activity of beta-lactamase (a marker of NFkB-promoter activity) is measured as a product to substrate ratio (blue/green fluorescence ratio: 460 nm/530 nm).
# rabbit kidney (RK-13) = assay: Toxicity in normal cells (MTT), RK-13; assay type: cell-based; settings: Oryctolagus cuniculus, RK-13, 120 h, 5 days, top concentration 150 μM, read-out: Normal cell viability IC50
# Procedure: Human neonatal fibroblast foreskin (NFF—a gift from Dr. Peter Parsons, Queensland Institute of Medical Research) or rabbit kidney (RK-13—a gift from Prof. Miller Whalley, Macquarie University) cells were seeded into 96 well plates and cultured in RPMI supplemented with 10% FCS (CSL, Australia), penicillin (100 U/ml), streptomycin ([…]), L-glutamine (2 mM) and sodium bicarbonate (1.2 g/L) at 37° C. and 5% CO2 for 24 hours until cells had attached and entered log phase of growth. Test compounds were added in serial two-fold dilutions from 150 μM in triplicate and incubated for a further 5 days. MTT was then added to each well, incubated for 3 hours at 37° C., after which the medium was tipped off. Following the addition of DMSO, the absorbance for each well was read on a plate reader. The assays were repeated at least twice.
# [1] = system: low density lipoprotein (LDL); assay: Cu2+-induced oxidation of LDL (FOX assay); assay type: biochemical; design: lipid peroxide formation: unit not given here
# Procedure: Blood was collected by venipuncture and plasma separated by centrifugation. LDL was then isolated from plasma using a 4-step sodium chloride density gradient and ultracentrifuged at 200,000 g for 20 hours at 4° C. The collect LDL was purified by passage through gel filtration PD10 column to remove excess salt and EDTA, and stored in the dark at 4° C. to prevent auto-oxidation and used with two weeks of isolation. The LDL cholesterol content was measure using a standard enzymatic method and protein concentration determined by the Lowry method using BSA as the standard.
# On the day of each experiment a 2 mL aliquot of LDL was passed through a second PD10 column and diluted with chelex treated PBS (100 mM) to give a standard protein concentration of 0.1 mg/mL, ie final concentration per reaction. Oxidation reactions were initiated by the addition of freshly prepared Cu^2+ solution, such that the final concentration of CuSO4 was 5 μM. […] The extent of lipoprotein oxidation was determined by measuring the formation of lipid-peroxides on aliquots removed every 30-minute over a 3-hour period. Peroxides were determined at each time point by the ferrous oxidation-xylenol orange (FOX) assay using standard hydrogen peroxide curve (5 to 200 μM). Compound (1) was examined in at least two separate experiments performed on separate days.
# TXA2 = TXA2 synthesis in RAW 264.7 (ELISA); assay type: cell-based, mouse; settings: LPS 50 ng/ml, 16 hrs
# Procedure: The mouse macrophage cell line RAW 264.7 was cultured in DMEM supplemented with foetal calf serum (FCS), 2 mM glutamine and 50 U/ml penicillin/streptomycin. Cells were treated with either test compounds (in 0.025% DMSO) or vehicle alone, and added one hour before 50 ng/ml LPS. After incubation for 16 hrs, culture media was collected for PGE2 or TXB2 measurement by ELISA (Cayman Chemical), and TNFα measurement using an ELISA (Becton Dickinson).
smiles,measurement,setting,value
O=C(O)C1CCCN1Cc1cc2c(cc1O)OCC(c1ccc(O)cc1)=C2 (stereo not shown) [Compound (3)],Inflammatory index,"NFκB; 10 μM, vehicle 8.92 ± 0.22",8.88 ± 0.05
same,Inflammatory index,"NFκB; 30 μM, vehicle 11.56 ± 0.49",11.45 ± 0.86
same,Inflammatory index,"NFκB; 100 μM, vehicle 9.48 ± 0.14",8.59 ± 0.24
same,IC50,rabbit kidney (RK-13),> 150 µM
same,lipid peroxide formation,"[1]; Compound (3) 10 μM + Cu++ 5 μM, no LDL, 0 min",2.36 ± 5.25
same,lipid peroxide formation,"[1]; Compound (3) 10 μM + Cu++ 5 μM, no LDL, 30 min",−3.75 ± 3.02
same,lipid peroxide formation,"[1]; Compound (3) 10 μM + Cu++ 5 μM, no LDL, 60 min",−1.38 ± 2.64
same,lipid peroxide formation,"[1]; Compound (3) 10 μM + Cu++ 5 μM, no LDL, 90 min",−0.82 ± 2.31
same,lipid peroxide formation,"[1]; Compound (3) 10 μM + Cu++ 5 μM, no LDL, 120 min",−2.48 ± 2.55
same,lipid peroxide formation,"[1]; Compound (3) 10 μM + Cu++ 5 μM, no LDL, 150 min",−6.22 ± 6.83
same,IC50,"[1]; LDL 0.1 mg/mL, CuSO4 5 μM, read-out: IC50, concentration at which 50% of the LDL oxidation was inhibited",500 nM
same,lipid peroxide formation,"[1]; LDL 0.1 mg/ml + compound (3) 0.01 μM + Cu++ 5 μM, 0 min",5.55 ± 0.22
same,lipid peroxide formation,"[1]; LDL 0.1 mg/ml + compound (3) 0.01 μM + Cu++ 5 μM, 30 min",2.85 ± 2.80
same,lipid peroxide formation,"[1]; LDL 0.1 mg/ml + compound (3) 0.01 μM + Cu++ 5 μM, 60 min",25.92 ± 13.53
same,lipid peroxide formation,"[1]; LDL 0.1 mg/ml + compound (3) 0.01 μM + Cu++ 5 μM, 90 min",88.97 ± 3.03
same,lipid peroxide formation,"[1]; LDL 0.1 mg/ml + compound (3) 0.01 μM + Cu++ 5 μM, 120 min",131.94 ± 4.81
same,lipid peroxide formation,"[1]; LDL 0.1 mg/ml + compound (3) 0.01 μM + Cu++ 5 μM, 150 min",137.86 ± 26.03
same,lipid peroxide formation,"[1]; LDL 0.1 mg/ml + compound (3) 0.1 μM + Cu++ 5 μM, 0 min",5.62 ± 0.85
same,lipid peroxide formation,"[1]; LDL 0.1 mg/ml + compound (3) 0.1 μM + Cu++ 5 μM, 30 min",3.24 ± 1.93
same,lipid peroxide formation,"[1]; LDL 0.1 mg/ml + compound (3) 0.1 μM + Cu++ 5 μM, 60 min",18.89 ± 7.84
same,lipid peroxide formation,"[1]; LDL 0.1 mg/ml + compound (3) 0.1 μM + Cu++ 5 μM, 90 min",73.79 ± 1.40
same,lipid peroxide formation,"[1]; LDL 0.1 mg/ml + compound (3) 0.1 μM + Cu++ 5 μM, 120 min",138.28 ± 2.75
same,lipid peroxide formation,"[1]; LDL 0.1 mg/ml + compound (3) 0.1 μM + Cu++ 5 μM, 150 min",155.66 ± 21.85
same,lipid peroxide formation,"[1]; LDL 0.1 mg/ml + compound (3) 1.0 μM + Cu++ 5 μM, 0 min",7.38 ± 2.69
same,lipid peroxide formation,"[1]; LDL 0.1 mg/ml + compound (3) 1.0 μM + Cu++ 5 μM, 30 min",−2.09 ± 9.59
same,lipid peroxide formation,"[1]; LDL 0.1 mg/ml + compound (3) 1.0 μM + Cu++ 5 μM, 60 min",7.21 ± 4.53
same,lipid peroxide formation,"[1]; LDL 0.1 mg/ml + compound (3) 1.0 μM + Cu++ 5 μM, 90 min",7.13 ± 3.76
same,lipid peroxide formation,"[1]; LDL 0.1 mg/ml + compound (3) 1.0 μM + Cu++ 5 μM, 120 min",11.69 ± 7.30
same,lipid peroxide formation,"[1]; LDL 0.1 mg/ml + compound (3) 1.0 μM + Cu++ 5 μM, 150 min",79.63 ± 27.82
same,lipid peroxide formation,"[1]; LDL 0.1 mg/ml + compound (3) 10 μM + Cu++ 5 μM, 0 min",1.62 ± 4.14
same,lipid peroxide formation,"[1]; LDL 0.1 mg/ml + compound (3) 10 μM + Cu++ 5 μM, 30 min",2.59 ± 2.96
same,lipid peroxide formation,"[1]; LDL 0.1 mg/ml + compound (3) 10 μM + Cu++ 5 μM, 60 min",5.65 ± 2.55
same,lipid peroxide formation,"[1]; LDL 0.1 mg/ml + compound (3) 10 μM + Cu++ 5 μM, 90 min",4.40 ± 1.13
same,lipid peroxide formation,"[1]; LDL 0.1 mg/ml + compound (3) 10 μM + Cu++ 5 μM, 120 min",3.57 ± 2.23
same,lipid peroxide formation,"[1]; LDL 0.1 mg/ml + compound (3) 10 μM + Cu++ 5 μM, 150 min",4.15 ± 2.87
same,TXB2,TXA2; 1 μM,374.8 ± 132.29 pg/mL
same,TXB2,TXA2; 10 μM,287.04 ± 75.58 pg/mL

# Source: patent US20120003270A1, “6-SUBSTITUTED ISOFLAVONOID COMPOUNDS AND USES THEREOF” (priority 2008, published 2012)
